Format in all cases: functional
Experiment [1] has as its target Mu-type opioid receptor (Homo sapiens, UniProt P35372). Description: SAR Analysis of Antagonists of the MOR Receptor using an Image-Based Assay - Set 3. [Related pubchem assays (depositor defined):AID1777, AID1785, AID1786, AID1966, AID2133, AID2136, AID2284, AID2285, AID2420].
For experiment [2], the target named is Delta-type opioid receptor (Homo sapiens, UniProt P41143). Description: SAR Analysis of Antagonists of the DOR Receptor using an Image-Based Assay - Set 3. [Related pubchem assays (depositor defined):AID1777, AID1785].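 Note: U2OS cells expressing DOR1 and beta-arrestin GFP stimulated with 100 nM SNC80; imaging of GFP-tagged beta-arrestin moving into spots after receptor activation.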
Experiment [3] concerns the target T1, Kappa-type opioid receptor (Homo sapiens, UniProt P41145). Description: SAR analysis of small molecule antagonists of the kappa opioid receptor via a luminescent beta-arrestin assay - Set 3. [Related pubchem assays (depositor defined):AID1777, AID1778, AID1785, AID1786, AID1966, AID2133, AID2136, AID2285, AID2495].
Experiment [4] has as its target T1, Kappa-type opioid receptor. Put plainly: SAR analysis of Antagonists of the Kappa Opioid Receptor (KOR) using an Image-Based Assay - Set 4. [Related pubchem assays (depositor defined):AID1777, AID1785].
The target of experiment [5] is T2, Tyrosine-protein phosphatase non-receptor type 12 (Homo sapiens, UniProt Q05209).
T2 sequence (Q05209 whole entry): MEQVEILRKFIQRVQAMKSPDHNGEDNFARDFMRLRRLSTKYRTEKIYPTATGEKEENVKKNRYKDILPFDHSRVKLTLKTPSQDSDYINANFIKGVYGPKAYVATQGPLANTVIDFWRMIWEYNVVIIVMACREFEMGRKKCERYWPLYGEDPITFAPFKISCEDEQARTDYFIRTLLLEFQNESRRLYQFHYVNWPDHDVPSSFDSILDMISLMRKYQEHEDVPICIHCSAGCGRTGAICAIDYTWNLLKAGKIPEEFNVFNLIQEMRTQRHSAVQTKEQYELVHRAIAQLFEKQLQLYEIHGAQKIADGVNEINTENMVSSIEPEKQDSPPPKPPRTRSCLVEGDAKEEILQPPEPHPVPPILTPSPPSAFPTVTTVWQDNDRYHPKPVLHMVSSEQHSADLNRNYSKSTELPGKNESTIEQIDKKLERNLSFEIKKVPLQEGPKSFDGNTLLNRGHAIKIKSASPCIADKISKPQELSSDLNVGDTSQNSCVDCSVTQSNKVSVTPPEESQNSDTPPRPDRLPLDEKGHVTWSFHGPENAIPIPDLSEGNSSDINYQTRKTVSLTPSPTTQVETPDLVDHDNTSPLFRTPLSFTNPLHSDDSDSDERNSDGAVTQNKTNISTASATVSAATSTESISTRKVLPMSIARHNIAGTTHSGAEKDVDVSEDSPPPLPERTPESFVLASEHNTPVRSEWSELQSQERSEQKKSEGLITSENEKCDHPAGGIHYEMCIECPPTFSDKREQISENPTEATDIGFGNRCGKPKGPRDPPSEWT
Put plainly: SAR Selectivity Analysis of small molecule inhibitors of PEST using pCAP in a fluorescence assay. [Related pubchem assays (depositor defined):AID1779, AID1784, AID2135].

For experiment [6], the target named is T3, Tyrosine-protein phosphatase non-receptor type 22 (Homo sapiens, UniProt Q9Y2R2).
T3 sequence (Q9Y2R2 whole entry): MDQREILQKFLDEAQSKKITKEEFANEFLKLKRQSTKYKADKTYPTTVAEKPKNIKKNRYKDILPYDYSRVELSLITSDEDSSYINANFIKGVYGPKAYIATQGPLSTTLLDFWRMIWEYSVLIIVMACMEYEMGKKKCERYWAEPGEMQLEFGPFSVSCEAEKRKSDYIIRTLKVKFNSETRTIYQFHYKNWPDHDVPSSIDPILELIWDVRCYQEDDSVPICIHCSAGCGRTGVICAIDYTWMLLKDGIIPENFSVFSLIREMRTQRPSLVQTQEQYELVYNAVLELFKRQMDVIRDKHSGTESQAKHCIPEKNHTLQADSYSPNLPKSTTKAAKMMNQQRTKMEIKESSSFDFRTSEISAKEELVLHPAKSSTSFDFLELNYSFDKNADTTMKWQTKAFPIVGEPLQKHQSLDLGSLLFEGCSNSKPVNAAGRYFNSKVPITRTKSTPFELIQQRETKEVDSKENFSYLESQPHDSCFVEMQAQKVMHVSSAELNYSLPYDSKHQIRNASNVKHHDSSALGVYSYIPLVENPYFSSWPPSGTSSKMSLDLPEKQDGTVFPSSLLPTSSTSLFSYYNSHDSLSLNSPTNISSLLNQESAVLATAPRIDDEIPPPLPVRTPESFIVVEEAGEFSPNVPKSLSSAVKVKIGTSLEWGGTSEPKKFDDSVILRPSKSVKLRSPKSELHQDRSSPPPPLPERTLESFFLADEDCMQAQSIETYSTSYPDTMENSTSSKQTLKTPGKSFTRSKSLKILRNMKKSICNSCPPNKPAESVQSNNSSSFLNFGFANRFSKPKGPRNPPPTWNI
Put plainly: SAR LYP1 Fluorescent Assay using OMFP substrate for In Vitro dose response studies - Set 3. [Related pubchem assays (depositor defined):AID1779, AID1784, AID2140, AID2686].

For experiment [7], the target named is T4, Tyrosine-protein phosphatase non-receptor type 7 (Homo sapiens, UniProt P35236).
T4 sequence (P35236 whole entry): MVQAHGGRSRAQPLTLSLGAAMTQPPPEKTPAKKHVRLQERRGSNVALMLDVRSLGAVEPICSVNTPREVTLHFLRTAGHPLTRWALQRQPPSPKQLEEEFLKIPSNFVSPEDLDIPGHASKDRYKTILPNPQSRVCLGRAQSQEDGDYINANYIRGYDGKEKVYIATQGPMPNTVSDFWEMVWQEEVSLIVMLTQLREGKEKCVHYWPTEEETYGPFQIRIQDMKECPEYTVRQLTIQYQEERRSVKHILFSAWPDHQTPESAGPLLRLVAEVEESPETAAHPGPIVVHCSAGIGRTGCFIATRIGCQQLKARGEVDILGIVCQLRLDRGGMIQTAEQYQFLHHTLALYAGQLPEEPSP
Description: redox-dependent HePTP inhibition, mechanism study, biochemical, fluorescence (AID 2068).

The target in experiment [8] is T3, Tyrosine-protein phosphatase non-receptor type 22. Put plainly: LYP (PTPN22) phosphatase inhibitor potency, SAR follow-up, biochemical, pCAP fluorogenic substrate, fluorescence, set 3 (AID 449727).
For experiment [9], the target named is Dual specificity protein phosphatase 3 (Homo sapiens, UniProt P51452). Description: SAR VHR1 Fluorescent Assay for In Vitro dose response studies Set 2. [Related pubchem assays (depositor defined):AID1654, AID1661, AID1878].
The target in experiment [10] is T5, Dual specificity protein phosphatase 6 (Rattus norvegicus, UniProt Q64346).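 Note: confirmatory in vitro dose-response testing of MKP-3 inhibition; recombinant His-tagged MKP-3 made in E. coli BL21 with OMFP substrate.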
T5 sequence (Q64346 whole entry): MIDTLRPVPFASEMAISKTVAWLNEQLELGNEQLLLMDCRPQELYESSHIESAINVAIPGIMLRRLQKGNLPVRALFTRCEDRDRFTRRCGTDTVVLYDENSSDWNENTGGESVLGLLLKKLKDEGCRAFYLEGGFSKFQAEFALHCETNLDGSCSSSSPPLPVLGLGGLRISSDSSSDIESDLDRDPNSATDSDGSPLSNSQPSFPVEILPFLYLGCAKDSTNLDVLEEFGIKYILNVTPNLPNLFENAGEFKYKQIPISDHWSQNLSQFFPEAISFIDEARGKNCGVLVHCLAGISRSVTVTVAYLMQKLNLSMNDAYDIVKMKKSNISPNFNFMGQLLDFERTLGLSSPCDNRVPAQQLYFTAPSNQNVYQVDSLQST

The target in experiment [11] is Peroxisome proliferator-activated receptor gamma (Homo sapiens, UniProt P37231). Description: PPARg partial agonists, dose response, cell-based, luminescence, assay provider (AID 504447).
In experiment [12] the target is T6, Sentrin-specific protease 1 (Homo sapiens, UniProt Q9P0U3).
T6 sequence (Q9P0U3 whole entry): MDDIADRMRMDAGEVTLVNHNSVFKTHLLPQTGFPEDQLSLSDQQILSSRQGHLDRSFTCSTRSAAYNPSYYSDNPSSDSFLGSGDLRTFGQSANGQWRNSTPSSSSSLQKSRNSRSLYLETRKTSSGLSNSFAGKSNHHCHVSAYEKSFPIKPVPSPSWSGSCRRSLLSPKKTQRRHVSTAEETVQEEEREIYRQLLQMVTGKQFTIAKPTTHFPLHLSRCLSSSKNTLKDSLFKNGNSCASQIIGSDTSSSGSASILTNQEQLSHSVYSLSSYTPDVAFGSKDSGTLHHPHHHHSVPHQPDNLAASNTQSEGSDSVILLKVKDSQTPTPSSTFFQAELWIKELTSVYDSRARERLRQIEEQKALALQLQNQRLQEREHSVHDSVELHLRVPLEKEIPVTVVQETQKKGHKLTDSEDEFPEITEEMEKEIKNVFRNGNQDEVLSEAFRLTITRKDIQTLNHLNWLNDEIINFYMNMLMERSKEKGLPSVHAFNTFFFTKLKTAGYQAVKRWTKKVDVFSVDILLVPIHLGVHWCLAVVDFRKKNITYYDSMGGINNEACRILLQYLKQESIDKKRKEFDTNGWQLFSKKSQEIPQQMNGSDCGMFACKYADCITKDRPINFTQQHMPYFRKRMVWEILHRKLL
Description: potency of human SENP1 inhibitors, dose response, biochemical, kinetic FRET (AID 651697). To be noted: read-out: IC50_Mean.

In experiment [13] the target is T6, Sentrin-specific protease 1. Put plainly: Dose response confirmation of small molecule inhibitors of the catalytic domain of the SUMO protease, SENP1 in a FRET assay. To be noted: read-out: IC50_Mean.

Calls of active or inactive are those of the source.

T1 sequence (P41145 whole entry): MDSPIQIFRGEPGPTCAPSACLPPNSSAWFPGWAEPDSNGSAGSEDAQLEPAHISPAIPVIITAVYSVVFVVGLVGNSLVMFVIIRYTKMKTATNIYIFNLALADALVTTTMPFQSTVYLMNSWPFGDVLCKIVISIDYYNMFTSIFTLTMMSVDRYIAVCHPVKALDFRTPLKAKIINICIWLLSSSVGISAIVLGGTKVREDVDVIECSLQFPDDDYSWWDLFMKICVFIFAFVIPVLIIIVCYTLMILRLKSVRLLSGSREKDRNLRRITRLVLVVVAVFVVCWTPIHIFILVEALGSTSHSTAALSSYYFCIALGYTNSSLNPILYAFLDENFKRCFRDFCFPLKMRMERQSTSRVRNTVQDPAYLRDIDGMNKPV
Peroxisome proliferator-activated receptor gamma, sequence (P37231 whole entry): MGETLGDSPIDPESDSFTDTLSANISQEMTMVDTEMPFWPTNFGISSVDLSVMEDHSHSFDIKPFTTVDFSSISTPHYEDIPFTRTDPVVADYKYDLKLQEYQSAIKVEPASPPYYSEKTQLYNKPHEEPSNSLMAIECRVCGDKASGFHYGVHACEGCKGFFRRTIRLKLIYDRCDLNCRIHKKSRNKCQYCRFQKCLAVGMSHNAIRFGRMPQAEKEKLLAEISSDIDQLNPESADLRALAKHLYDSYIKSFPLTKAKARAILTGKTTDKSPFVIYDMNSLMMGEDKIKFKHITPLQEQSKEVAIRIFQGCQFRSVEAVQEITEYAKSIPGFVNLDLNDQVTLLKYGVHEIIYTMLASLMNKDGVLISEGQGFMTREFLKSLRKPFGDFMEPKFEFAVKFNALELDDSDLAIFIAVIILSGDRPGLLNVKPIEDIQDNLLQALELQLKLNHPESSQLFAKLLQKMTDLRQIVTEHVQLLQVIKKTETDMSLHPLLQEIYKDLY
Delta-type opioid receptor, sequence (P41143 whole entry): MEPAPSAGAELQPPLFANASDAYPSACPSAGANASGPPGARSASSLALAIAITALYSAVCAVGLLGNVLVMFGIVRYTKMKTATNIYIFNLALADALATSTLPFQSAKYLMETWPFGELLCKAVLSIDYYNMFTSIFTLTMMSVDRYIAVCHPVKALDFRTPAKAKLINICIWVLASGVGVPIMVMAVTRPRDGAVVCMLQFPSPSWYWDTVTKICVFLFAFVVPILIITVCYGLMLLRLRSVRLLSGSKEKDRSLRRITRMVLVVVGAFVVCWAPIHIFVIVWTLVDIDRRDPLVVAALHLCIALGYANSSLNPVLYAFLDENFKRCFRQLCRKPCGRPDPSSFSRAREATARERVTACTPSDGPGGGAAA
Dual specificity protein phosphatase 3, sequence (P51452 whole entry): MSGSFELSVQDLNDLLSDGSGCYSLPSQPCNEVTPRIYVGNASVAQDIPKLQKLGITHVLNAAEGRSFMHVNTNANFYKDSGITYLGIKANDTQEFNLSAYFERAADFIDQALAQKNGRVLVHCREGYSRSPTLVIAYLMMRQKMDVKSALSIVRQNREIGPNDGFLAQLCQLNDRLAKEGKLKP
Mu-type opioid receptor, sequence (P35372 whole entry): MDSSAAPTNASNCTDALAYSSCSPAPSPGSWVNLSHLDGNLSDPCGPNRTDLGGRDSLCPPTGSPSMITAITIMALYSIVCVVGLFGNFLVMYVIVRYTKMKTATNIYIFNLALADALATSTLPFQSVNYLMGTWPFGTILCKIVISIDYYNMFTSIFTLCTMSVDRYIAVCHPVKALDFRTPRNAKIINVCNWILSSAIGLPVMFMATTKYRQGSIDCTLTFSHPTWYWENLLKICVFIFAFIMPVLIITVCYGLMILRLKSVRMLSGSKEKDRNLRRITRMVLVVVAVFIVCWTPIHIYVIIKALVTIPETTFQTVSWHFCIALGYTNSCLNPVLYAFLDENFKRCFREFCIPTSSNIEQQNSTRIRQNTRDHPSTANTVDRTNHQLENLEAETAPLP

For the compound `O=C(NCCN(Cc1ccccc1)Cc1ccccc1)c1ccc(CNS(=O)(=O)c2ccccc2)cc1`, the IC50 is > 32 µM (inactive) in [1], > 32 µM (inactive) in experiment [2], > 20 µM (inactive) in experiment [3] and > 32 µM (inactive) in [4].
With `COc1cc(/C=C2\SC(=O)N(CC(=O)Nc3cccc(C)c3)C2=O)cc(Cl)c1OCC(=O)O`, the IC50 in [5] is 2.2 µM (active); in [6] it was 4.96 µM (active); in experiment [7] it was 3.63 µM (active); in experiment [8], 3.69 µM (active); in [9], 17.9 µM (active); in experiment [10] it was > 100 µM (inactive).
For orientation: EC50 means the concentration giving half of the maximal effect. Consider `COc1ccccc1-n1cc(C(=O)c2cc(Cl)ccc2O)cc(C#N)c1=O`, for which, in experiment [11], the half-maximal effective concentration (EC50) was 2.4 µM (active). Further, the values for the IC50 in [12] and in [13] were 40.9 µM (inactive) and 25.5 µM (inactive), respectively.
